Laboratory results reported in ChEMBL document CHEMBL4715844, “Structure-based virtual screening and biological evaluation of novel non-bisphosphonate farnesyl pyrophosphate synthase inhibitors” (Eur J Med Chem, 2020).

Columns and labels:
[1] = molecular target: T1, Farnesyl pyrophosphate synthase (Rattus norvegicus, UniProt P05369); test: Binding affinity to rat FPPS expressed in Escherichia coli BL21 (DE3) by isothermal titration calorimetry
T1 sequence (P05369 whole entry): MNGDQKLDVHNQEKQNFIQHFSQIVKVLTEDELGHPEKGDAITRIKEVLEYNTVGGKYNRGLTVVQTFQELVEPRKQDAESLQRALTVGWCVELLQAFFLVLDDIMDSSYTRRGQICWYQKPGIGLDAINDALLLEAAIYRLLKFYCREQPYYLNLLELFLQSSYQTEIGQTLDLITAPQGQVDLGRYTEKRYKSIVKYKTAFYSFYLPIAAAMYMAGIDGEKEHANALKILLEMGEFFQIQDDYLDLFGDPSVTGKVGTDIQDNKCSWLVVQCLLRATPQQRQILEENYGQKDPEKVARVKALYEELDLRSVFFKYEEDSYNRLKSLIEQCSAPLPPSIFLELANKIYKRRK

[2] = molecular target: T2, Farnesyl pyrophosphate synthase (Rattus norvegicus) (UniProt P05369); test: Inhibition of rat FPPS expressed in Escherichia coli BL21 (DE3) using GPP and IPP as substrate at 10 uM incubated for 10 mins by microplate reader
T2 sequence (whole entry): T1 sequence (P05369 whole entry)

`CC(C)Oc1ccc(CNC(=O)C2CCCN(S(=O)(=O)N3CCOCC3)C2)cc1` (configuration not stated) was tested, and the Kd [1] was 72 µM and the inhibition [2] was 28.9%.
